The text below walks through data of patent US20150230474A1, “Use of Glyphosate to Control Clubroot Disease” (priority 2014, published 2015).

For data set [1], the system named is Plasmodiophora brassicae. Briefly: Treatment of canola seedlings: potting mix irrigated with glyphosate solution, then inoculated with P. brassicae spores. The conditions noted are these: 572 mg/pot glyphosate, 15 days post-inoculation, VT500G canola. It is filed as in vivo. As for the experimental part:
(§1) An isolate of clubroot pathogen Plasmodiophora brassicae was obtained from infested canola fields in central Alberta. The pathogen population from this collection may represent a mixture of pathotypes, but pathotype 3 is expected to be predominant (Peng et al., 2011). The inoculum was propagated using a susceptible canola cv. Westar grown in the infested soil with spores. Fresh clubroot galls were harvested, air dried, and stored at 4° C., and were further used for fresh inoculum preparation. To extract spores, 2-5 g of air-dried galls were soaked in distilled water for a few hours to soften the tissues and then ground in a mortar with pestle. The resulting slurry was filtered through three layers of cheesecloth and the spore concentration was estimated under a microscope. Inoculum concentration of 1.0·10^7 resting spores/ml was used for inoculation.
Canola plants, cultivar Westar and the glyphosate-resistant transgenic line VT500G of Brassica napus, were used. Plants were grown in a phytotron at 22° C. with a light/dark photoperiod of 16 h/8 h (light intensity 120 μmol m^−2 s^−1). […]

Data set [2] has as its system Plasmodiophora brassicae. Briefly: Pre-seeding treatment of P. brassicae infested potting mix, VT500G canola then sown. Format: in vivo. The conditions noted are these: for plant growth / foliar symptoms of clubroot disease: 35 days post seeding; for early senescence: 60 days post seeding. As for the experimental part:
as §1
(§2) Canola plants, cultivar Westar and the Roundup®-resistant transgenic line VT500G of Brassica napus, were used. Plants were grown in a phytotron at 22° C. with a light/dark photoperiod of 16 h/8 h (light intensity 120 μmol m^−2 s^−1).
(§3) Potting mix consisting of fine peat moss, vermiculite, gypsum, dolomitic limestone and starter nutrient (Sunshine Mix #3; pH 5.8-6.2; Sun Gro Horticulture Canada Ltd., Canada) in 13 cm diameter plastic pots was inoculated with P. brassicae spores. The P. brassicae infested potting soil was then irrigated with 350 ml of water or glyphosate (Roundup®, Monsanto Canada Inc.) solution to provide an application rate of 0 mg, 143, 286, or 572 mg of glyphosate per 13 cm pot containing 750 cm3 of potting mix. VT500G canola seeds were subsequently sown on the treated potting mix and allowed to grow at 22° C. with a light/dark photoperiod of 16 h/8 h for 65 days. Plant growth and clubroot symptom development were monitored over the incubation time course.

The test system of the next data set is VT500G canola plants. As to the kind of experiment: Growth impediment of canola seedlings after pre-seeding glyphosate treatment of potting mix. Format: in vivo, Brassica napus. As for the experimental part:
as §2, §3

Structures are written as SMILES. “Also recorded” adds a separate entry of the source.

With `O=C(O)CNCP(=O)(O)O` [glyphosate, N-(phosphonomethyl)glycine], in the data set on Plasmodiophora brassicae [1], the “clubroot development in the root system” value is “prevented visible clubroot development”. Further, the “plant growth / foliar symptoms of clubroot disease” value in the data set with Plasmodiophora brassicae [2] (143 mg/pot), in the data set with Plasmodiophora brassicae [2] (286 mg/pot) and with Plasmodiophora brassicae [2] (572 mg/pot) was “normal growth” in each case. Besides, the early senescence entry in the data set with Plasmodiophora brassicae [2] (143 mg/pot) was “appeared less affected, albeit with some signs of early senescence; also recorded: showed an early senescence”; with Plasmodiophora brassicae [2] (286 mg/pot), “did not display early senescence”; in the data set with Plasmodiophora brassicae [2] (572 mg/pot), “did not display early senescence”. The silique/seed production result with Plasmodiophora brassicae [2] (143 mg/pot, 65 days post seeding) is “Abortions of silique development were frequently observed”; in the data set with Plasmodiophora brassicae [2] (286 mg/pot, 65 days post seeding), “normal silique/seed production”; in the data set with Plasmodiophora brassicae [2] (572 mg/pot, 65 days post seeding) it was “normal silique/seed production”. Moreover, in the data set on Plasmodiophora brassicae [2] (all glyphosate treatments (143, 286, 572 mg/pot), 65 days post seeding), the plant survival result is reported as “all glyphosate treated plants had survived”. The “incidence of clubroot disease” value in the data set on Plasmodiophora brassicae [2] (drench application of glyphosate pesticide solution to inoculated potting mix, glyphosate-resistant canola) was “reduced the incidence of clubroot disease”. In the data set with VT500G canola plants (572 mg/pot, 12 days post seeding), the chlorosis of leaves result is on record as “light chlorosis on true leaves”. For the same compound, the growth retardation result in the data set on VT500G canola plants (572 mg/pot, 22 days post seeding) is “slightly retarded growth”. Moreover, the “growth impediment of seedlings” value with VT500G canola plants (glyphosate-treated seedlings, early stages) was “Some growth retardation; also recorded: some growth impediment”.
